Reference: patent US20110190503A1, “Thiazolopyridin-2-yloxy-phenyl and thiazolopyrazin-2-yloxy-phenyl amines as modulators of leukotriene A4 hydrolase” (Janssen Pharmaceutical NV, priority 2008, published 2011)
Structures can show the parent of a compound that is named as a salt.

Molecular target: T1, recombinant human LTA4 hydrolase (rhLTA4H) (Homo sapiens, UniProt P09960)
T1 construct: made in house; host or cells: Spodoptera frugiperda (Sf-9) cells, recombinant baculovirus (pFastBac1)
T1 sequence (P09960 1-611): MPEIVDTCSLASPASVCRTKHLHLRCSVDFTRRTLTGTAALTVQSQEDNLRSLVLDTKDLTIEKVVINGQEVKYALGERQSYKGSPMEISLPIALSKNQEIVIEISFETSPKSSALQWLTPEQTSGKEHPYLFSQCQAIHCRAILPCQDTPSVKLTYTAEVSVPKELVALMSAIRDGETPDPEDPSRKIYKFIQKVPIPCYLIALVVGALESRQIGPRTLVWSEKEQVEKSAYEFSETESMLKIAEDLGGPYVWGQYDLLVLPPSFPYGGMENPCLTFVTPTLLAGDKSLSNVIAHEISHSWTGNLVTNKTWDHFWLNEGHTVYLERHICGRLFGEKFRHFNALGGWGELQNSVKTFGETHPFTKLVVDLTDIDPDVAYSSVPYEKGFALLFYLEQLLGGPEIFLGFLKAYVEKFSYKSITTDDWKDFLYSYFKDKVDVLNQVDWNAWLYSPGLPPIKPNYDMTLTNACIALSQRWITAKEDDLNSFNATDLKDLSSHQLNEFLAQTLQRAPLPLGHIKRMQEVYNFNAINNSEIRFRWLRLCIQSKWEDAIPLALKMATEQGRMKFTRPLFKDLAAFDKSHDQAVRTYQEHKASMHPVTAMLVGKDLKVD
Test: Recombinant human LTA4 hydrolase assay for LTA4 hydrolase inhibitor activity
Type: biochemical
Conditions: rhLTA4H, LTA4 substrate, LTB4 by immunoassay; single determination or average; read-out: IC50
Outline: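 Recombinant human LTA4H from baculovirus-infected Sf-9 cells (10 ng) pre-incubated 10 min at rt with compound (10% DMSO in dilutions), then reacted with free-acid LTA4 for 30 min at rt. LTB4 measured by ELISA; IC50 by nonlinear regression. Values are single determinations or averages.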

| SMILES | IC50 [nM] |
| --- | --- |
| O=C(c1ccc(Cl)cc1)C1CCN(CCc2ccc(Oc3nc4cnccc4s3)cc2)CC1 [Example 195, (4-Chlorophenyl)(1-{2-[4-([1,3]thiazolo[4,5-c]pyridin-2-yloxy)phenyl]ethyl}piperidin-4-yl)methanone] | 1370 |
| FC1CCN(CCc2ccc(Oc3nc4nccnc4s3)cc2)CC1 [Example 180, 2-({4-[2-(4-Fluoropiperidin-1-yl)ethyl]phenyl}oxy)[1,3]thiazolo[4,5-b]pyrazine] | 71 |
| CC(=O)N1[C@@H]2CC[C@H]1C[C@H](NCCOc1ccc(Oc3nc4ncccc4s3)cc1)C2 [Example 215, meso-(3-exo)-8-Acetyl-N-{2-[4-([1,3]thiazolo[4,5-b]pyridin-2-yloxy)phenoxy]ethyl}-8-azabicyclo[3.2.1]octan-3-amine hydrochloride] | 21 |
| NC(=O)N1CC2CN(CCc3ccc(Oc4nc5ccncc5s4)cc3)CC2C1 (stereo not shown) [Example 246, 5-{2-[4-([1,3]Thiazolo[5,4-c]pyridin-2-yloxy)phenyl]ethyl}hexahydropyrrolo[3,4-c]pyrrole-2(1H)-carboxamide] | 331 |
| O=C(Cc1cccs1)N1CCN(Cc2ccc(Oc3nc4nccnc4s3)cc2)CC1 [Example 173, 2-[(4-{[4-(2-Thienylacetyl)piperazin-1-yl]methyl}phenyl)oxy][1,3]thiazolo[4,5-b]pyrazine] | 388 |
| OC1(c2ccccc2)CCN(CCc2ccc(Oc3nc4ncccc4s3)cc2)CC1 [Example 62, 4-Phenyl-1-{2-[4-([1,3]thiazolo[4,5-b]pyridin-2-yloxy)phenyl]ethyl}piperidin-4-ol] | 8.3 |
| Cc1cnc2nc(Oc3ccc(CN4CCC(C(=O)N(C)C)CC4)cc3)sc2c1 [Example 172, N,N-Dimethyl-1-({4-[(6-methyl[1,3]thiazolo[4,5-b]pyridin-2-yl)oxy]phenyl}methyl)piperidine-4-carboxamide] | 26 |
| NC(=O)N1[C@@H]2CC[C@H]1C[C@H](NCc1ccc(Oc3nc4cccnc4s3)cc1)C2 [Example 201, meso-(3-exo)-3-{[4-([1,3]Thiazolo[5,4-b]pyridin-2-yloxy)benzyl]amino}-8-azabicyclo[3.2.1]octane-8-carboxamide] | 891 |
| O=C1CCCN1C1CCN(CCOc2ccc(Oc3nc4ccncc4s3)cc2)CC1 [Example 144, 1-(1-{2-[4-([1,3]Thiazolo[5,4-c]pyridin-2-yloxy)phenoxy]ethyl}piperidin-4-yl)pyrrolidin-2-one] | 350 |
| Cc1cnc2nc(Oc3ccc(CN4CCC(C(=O)N5CCNCC5)CC4)cc3)sc2c1 [Example 229, 6-Methyl-2-(4-{[4-(piperazin-1-ylcarbonyl)piperidin-1-yl]methyl}phenoxy)[1,3]thiazolo[4,5-b]pyridine hydrochloride] | 1090 |
| CN1CCCN(CCOc2ccc(Oc3nc4cccnc4s3)cc2)CC1 [Example 152, 2-{4-[2-(4-Methyl-1,4-diazepan-1-yl)ethoxy]phenoxy}[1,3]thiazolo[5,4-b]pyridine] | 498 |
| CC(=O)N1CCN(CCc2ccc(Oc3nc4ccncc4s3)cc2)CC1 [Example 176, 2-{4-[2-(4-Acetylpiperazin-1-yl)ethyl]phenoxy}[1,3]thiazolo[5,4-c]pyridine] | 835 |
| CN(CCCN1CCCC1=O)CCOc1ccc(Oc2nc3ncc(Cl)cc3s2)cc1 [Example 155, 1-{3-[(2-{4-[(6-Chloro[1,3]thiazolo[4,5-b]pyridin-2-yl)oxy]phenoxy}ethyl)(methyl)amino]propyl}pyrrolidin-2-one] | 329 |
| O=C(O)CCN1CCN(CCc2ccc(Oc3nc4ncccc4s3)cc2)CC1 [Example 225, 3-(4-{2-[4-([1,3]Thiazolo[4,5-b]pyridin-2-yloxy)phenyl]ethyl}piperazin-1-yl)propanoic acid hydrochloride] | 21 |
| c1cc(C2CCN(Cc3ccc(Oc4nc5cnccc5s4)cc3)CC2)ccn1 [Example 190, 2-({4-[(4-Pyridin-4-ylpiperidin-1-yl)methyl]phenyl}oxy)[1,3]thiazolo[4,5-c]pyridine] | 455 |
| OCCN(CCOc1ccc(Oc2nc3cccnc3s2)cc1)CC1CC1 [Example 157, 2-[(Cyclopropylmethyl){2-[4-([1,3]thiazolo[5,4-b]pyridin-2-yloxy)phenoxy]ethyl}amino]ethanol] | 114 |
| c1ccc2c(c1)CN(CCOc1ccc(Oc3nc4ncccc4s3)cc1)C2 [Example 2, 2-{4-[2-(1,3-Dihydro-2H-isoindol-2-yl)ethoxy]phenoxy}[1,3]thiazolo[4,5-b]pyridine] | 110 |

| SMILES | IC50 [nM] |
| --- | --- |
| CS(=O)(=O)N[C@@H]1CC2CC[C@@H](C1)N2CCc1ccc(Oc2nc3cccnc3s2)cc1 [Example 194, meso-N-[(3-exo)-8-{2-[4-([1,3]Thiazolo[5,4-b]pyridin-2-yloxy)phenyl]ethyl}-8-azabicyclo[3.2.1]oct-3-yl]methanesulfonamide] | 92 |
| CN1CCN(Cc2ccc(Oc3nc4cccnc4s3)cc2)CCC1=O [Example 207, 4-Methyl-1-[4-([1,3]thiazolo[5,4-b]pyridin-2-yloxy)benzyl]-1,4-diazepan-5-one] | 1840 |
| CC(=O)N1[C@@H]2CC[C@H]1CN(CCc1ccc(Oc3nc4ncccc4s3)cc1)C2 [Example 212, meso-2-(4-{2-[8-Acetyl-3,8-diazabicyclo[3.2.1]oct-3-yl]ethyl}phenoxy)[1,3]thiazolo[4,5-b]pyridine] | 18 |
| NC(=O)N1C[C@@H]2C[C@H]1CN2CCOc1ccc(Oc2nc3cccnc3s2)cc1 [Example 21, (1S,4S)-5-{2-[4-([1,3]Thiazolo[5,4-b]pyridin-2-yloxy)phenoxy]ethyl}-2,5-diazabicyclo[2.2.1]heptane-2-carboxamide] | 160 |
| CC(=O)N1C[C@@H]2C[C@H]1CN2CCOc1ccc(Oc2nc3cccnc3s2)cc1 [Example 20, 2-(4-{2-[(1S,4S)-5-Acetyl-2,5-diazabicyclo[2.2.1]hept-2-yl]ethoxy}phenoxy)[1,3]thiazolo[5,4-b]pyridine] | 130 |
| CC(=O)N1C[C@@H]2C[C@H]1CN2Cc1ccc(Oc2nc3c(C)ccnc3s2)cc1 [Example 281, 2-(4-{[(1S,4S)-5-Acetyl-2,5-diazabicyclo[2.2.1]hept-2-yl]methyl}phenoxy)-7-methyl[1,3]thiazolo[5,4-b]pyridine] | > 10000 |
| c1cnc2sc(Oc3ccc(OCCN4CCOCC4)cc3)nc2n1 [Example 150, 2-[4-(2-Morpholin-4-ylethoxy)phenoxy][1,3]thiazolo[4,5-b]pyrazine] | 602 |
| O=C(c1ccco1)N1CCN(CCOc2ccc(Oc3nc4ncc(Cl)cc4s3)cc2)CC1 [Example 147, 6-Chloro-2-(4-{2-[4-(furan-2-ylcarbonyl)piperazin-1-yl]ethoxy}phenoxy)[1,3]thiazolo[4,5-b]pyridine] | 252 |
| NC(=O)N1C[C@@H]2C[C@H]1CN2Cc1ccc(Oc2nc3ncc(Cl)cc3s2)cc1 [Example 193, (1S,4S)-5-({4-[(6-Chloro[1,3]thiazolo[4,5-b]pyridin-2-yl)oxy]phenyl}methyl)-2,5-diazabicyclo[2.2.1]heptane-2-carboxamide] | 58 |
| CS(=O)(=O)N1CC2CN(Cc3ccc(Oc4nc5ncc(Cl)cc5s4)cc3)CC2C1 (stereo not shown) [Example 188, 6-Chloro-2-[(4-{[5-(methylsulfonyl)hexahydropyrrolo[3,4-c]pyrrol-2(1H)-yl]methyl}phenyl)oxy][1,3]thiazolo[4,5-b]pyridine] | 50 |
| c1cnc2nc(Oc3ccc(OCCNC4CC4)cc3)sc2c1 [Example 139, N-{2-[4-([1,3]Thiazolo[4,5-b]pyridin-2-yloxy)phenoxy]ethyl}cyclopropanamine] | 41 |
| NC(=O)N1[C@@H]2CC[C@H]1CN(Cc1ccc(Oc3nc4ncccc4s3)cc1)C2 [Example 171, meso-3-{[4-([1,3]Thiazolo[4,5-b]pyridin-2-yloxy)phenyl]methyl}-3,8-diazabicyclo[3.2.1]octane-8-carboxamide] | 42 |
| O=C(O)CN(Cc1ccccc1)Cc1ccc(Oc2nc3ncccc3s2)cc1 [Example 274, N-Benzyl-N-[4-([1,3]thiazolo[4,5-b]pyridin-2-yloxy)benzyl]glycine] | 919 |
| c1cc2sc(Oc3ccc(CCN4CCCC4)cc3)nc2cn1 [Example 221, 2-[4-(2-Pyrrolidin-1-ylethyl)phenoxy][1,3]thiazolo[4,5-c]pyridine] | 181 |
| CCCN(CCC)CCc1ccc(Oc2nc3cnccc3s2)cc1 [Example 196, N-Propyl-N-{2-[4-([1,3]thiazolo[4,5-c]pyridin-2-yloxy)phenyl]ethyl}propan-1-amine] | 87 |
| NC(=O)C1CCN(CCc2ccc(Oc3nc4cccnc4s3)cc2)CC1 [Example 67, 1-{2-[4-([1,3]Thiazolo[5,4-b]pyridin-2-yloxy)phenyl]ethyl}piperidine-4-carboxamide] | 190 |
| O=C1CCCN1C1CCN(CCOc2ccc(Oc3nc4cccnc4s3)cc2)CC1 [Example 43, 1-(1-{2-[4-([1,3]Thiazolo[5,4-b]pyridin-2-yloxy)phenoxy]ethyl}piperidin-4-yl)pyrrolidin-2-one] | 140 |
